Experimental data from US7119115B2, “Indazole or indole derivatives, and use thereof in human medicine and more particularly in oncology” (Aventis Pharma S.A., priority 2001, dated 2006).

Molecular target: T1, Tubulin (Sus scrofa, UniProt P02550+P02554)
T1 construct: Tubulin is purified from pig brain according to published methods; from tissue; host or cells: pig brain
Assay: Evaluation of the inhibition of tubulin polymerization (turbidimetry at 350 nm)
Assay type: biochemical
Conditions: concentration that inhibits the rate of polymerization by 50%; pig brain tubulin 10 μM
Method: Briefly, the brains are ground and centrifuged in an extraction buffer. The tubulin contained in the supernatant of the extract undergoes two successive cycles of polymerization at 37° C. and depolymerization at 4° C., before being separated from the MAPs (Microtubule Associated Proteins) by chromatography on a phosphocellulose P11 column (Whatman). […] It is stored in a buffer known as RB/2 30% glycerol, the composition of which is 50 mM MES-NaOH [2-(N-morpholino)ethanesulphonic acid], pH 6.8; 0.25 mM MgCl2; 0.5 mM EGTA; 30% glycerol (v/v), 0.2 mM GTP (guanosine-5′-triphosphate).
The polymerization of tubulin to microtubules is monitored by turbidimetry as follows: the tubulin is adjusted to a concentration of 10 μM (1 mg/ml) in RB/2 30% glycerol buffer to which 1 mM GTP and 6 mM MgCl2 are added. […] The increase in the turbidity of the solution is monitored at 350 nm.
The products are dissolved at 10 mM in DMSO and added at variable concentrations (0.5 to 10 μM) to the tubulin solution before polymerization.

T1 sequence (P02550 whole entry): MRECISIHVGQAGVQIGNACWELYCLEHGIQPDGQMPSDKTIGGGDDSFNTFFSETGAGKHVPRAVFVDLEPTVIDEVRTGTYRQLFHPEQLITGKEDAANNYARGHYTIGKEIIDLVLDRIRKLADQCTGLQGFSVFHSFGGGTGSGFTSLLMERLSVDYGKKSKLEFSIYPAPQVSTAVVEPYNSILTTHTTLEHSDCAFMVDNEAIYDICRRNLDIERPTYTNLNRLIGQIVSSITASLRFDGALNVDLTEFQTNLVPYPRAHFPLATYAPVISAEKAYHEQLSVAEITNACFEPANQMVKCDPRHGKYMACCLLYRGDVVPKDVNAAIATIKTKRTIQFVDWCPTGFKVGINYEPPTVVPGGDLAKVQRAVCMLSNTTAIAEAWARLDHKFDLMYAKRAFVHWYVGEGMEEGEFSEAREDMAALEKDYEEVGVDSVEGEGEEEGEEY
T1 sequence (P02554 whole entry): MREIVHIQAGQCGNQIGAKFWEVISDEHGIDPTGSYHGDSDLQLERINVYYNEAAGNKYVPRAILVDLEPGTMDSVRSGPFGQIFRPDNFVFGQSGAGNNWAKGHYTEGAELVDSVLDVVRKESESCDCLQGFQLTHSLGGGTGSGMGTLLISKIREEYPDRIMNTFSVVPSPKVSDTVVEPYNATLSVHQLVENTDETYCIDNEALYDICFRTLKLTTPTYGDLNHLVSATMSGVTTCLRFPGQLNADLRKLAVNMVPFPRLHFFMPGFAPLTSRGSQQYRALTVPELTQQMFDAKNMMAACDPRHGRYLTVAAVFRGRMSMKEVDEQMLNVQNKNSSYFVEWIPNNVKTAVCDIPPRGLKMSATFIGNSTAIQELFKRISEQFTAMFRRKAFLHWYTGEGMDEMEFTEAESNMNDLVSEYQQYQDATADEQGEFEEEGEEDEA

Compound | IC50 [µM]
C1=CC(c2ccccc2)(c2ccccc2)Cc2[nH]nc(/C(=N/OCc3ccccc3)C3CC3)c21 [Example 6-8B, cyclopropyl(6,6-diphenyl-6,7-dihydro-1H-indazol-3-yl)methanone O-benzyloxime] | 10
O=C(c1cc[nH]c1)c1n[nH]c2c1C=CC(c1ccccc1)(c1ccccc1)C2 [Example 5-4, (6,6-Diphenyl-6,7-dihydro-1H-indazol-3-yl)-(1H-pyrrol-3-yl)methanone] | 7
FCCO/N=C(/c1n[nH]c2c1C=CC(c1ccccc1)(c1ccccc1)C2)C1CC1 [Example 6-11B, cyclopropyl(6,6-diphenyl-6,7-dihydro-1H-indazol-3-yl)methanone O-(2-fluoroethyl)oxime] | 1.3
O=[N+]([O-])c1ccc(CO/N=C(/c2n[nH]c3c2C=CC(c2ccccc2)(c2ccccc2)C3)C2CC2)cc1 [Example 6-9B, cyclopropyl(6,6-diphenyl-6,7-dihydro-1H-indazol-3-yl)methanone O-(4-nitrobenzyl)oxime] | 2.5
O/N=C(\c1n[nH]c2c1C=CC(c1ccccc1)(c1ccc(F)cc1)C2)C1CC1 (single isomer, unassigned) [Example 10-5E, cyclopropyl[6-(4-fluorophenyl)-6-phenyl-6,7-dihydro-1H-indazol-3-yl]methanone oxime] | 6
CCOC(=O)c1n[nH]c2c1C=CC(c1ccccc1)(c1ccc(OC)c(OC)c1)C2 (racemic) [Example 10-2, Ethyl 6-(R,S)-6-(3,4-dimethoxyphenyl)-6-phenyl-6,7-dihydro-1H-indazole-3-carboxylate] | 4.5
O=C(c1ccccc1)c1n[nH]c2c1C=CC(c1ccccc1)(c1ccccc1)C2 [Example 5-3, (6,6-Diphenyl-6,7-dihydro-1H-indazol-3-yl)phenylmethanone] | 12.5
CCOC(=O)c1n[nH]c2c1C=CC(c1ccccc1)(c1ccccc1)C2C (stereo not drawn) [Example 13, Ethyl 7-methyl-6,6-diphenyl-6,7-dihydro-1H-indazole-3-carboxylate] | 1.5
ON=C(c1n[nH]c2c1C=CC(c1ccccc1)(c1ccccc1)C2)C1CC1 (single isomer, unassigned) [Example 6-1B, cyclopropyl(6,6-diphenyl-6,7-dihydro-1H-indazol-3-yl)methanone oxime] | 3
CCOC(=O)c1n[nH]c2c1C=CC(C)(c1ccccc1)C2 (racemic) [Example 9-1, Ethyl 6-(R,S)-6-methyl-6-phenyl-6,7-dihydro-1H-indazole-3-carboxylate] | 18
CN(C)CCO/N=C(/c1n[nH]c2c1C=CC(c1ccccc1)(c1ccccc1)C2)C1CC1 [Example 6-10B, cyclopropyl(6,6-diphenyl-6,7-dihydro-1H-indazol-3-yl)methanone O-(2-dimethylaminoethyl)oxime] | 12
O/N=C(/c1n[nH]c2c1C=CC(c1ccccc1)(c1ccc(F)cc1)C2)C1CC1 (single isomer, unassigned) [Example 10-5D, cyclopropyl[6-(4-fluorophenyl)-6-phenyl-6,7-dihydro-1H-indazol-3-yl]methanone oxime] | 1.5
CC(C)OC(=O)c1[nH]nc2c1C=CC(c1ccccc1)(c1ccccc1)C2 [Example 2-1, Isopropyl 6,6-diphenyl-6,7-dihydro-2H-indazole-3-carboxylate] | 3.7
CCOC(=O)c1n[nH]c2c1C=CC(c1ccccc1)(c1ccc(F)cc1)C2 (single isomer, unassigned) [Example 10-3C, ethyl 6,6-(4-fluorophenyl)-6-phenyl-6,7-dihydro-1H-indazole-3-carboxylate] | 1.5
ON=C(c1n[nH]c2c1C=CC(c1ccccc1)(c1ccc(F)cc1)C2)C1CC1 (single isomer, unassigned) [Example 10-5B] | 6
O=[N+]([O-])c1ccc(CO/N=C(\c2n[nH]c3c2C=CC(c2ccccc2)(c2ccccc2)C3)C2CC2)cc1 [Example 6-9A, cyclopropyl(6,6-diphenyl-6,7-dihydro-1H-indazol-3-yl)methanone O-(4-nitrobenzyl)oxime] | 1.5
C1=CC(c2ccccc2)(c2ccccc2)Cc2[nH]nc(/C(=N\OCc3ccccc3)C3CC3)c21 [Example 6-8A, cyclopropyl(6,6-diphenyl-6,7-dihydro-1H-indazol-3-yl)methanone O-benzyloxime] | 1.3
O=C(c1n[nH]c2c1C=CC(c1ccccc1)(c1ccc(F)cc1)C2)C1CC1 (single isomer, unassigned) [Example 10-4C, cyclopropyl[6-(4-fluorophenyl)-6-phenyl-6,7-dihydro-1H-indazol-3-yl]methanone] | 1.5
COC(=O)c1[nH]nc2c1C=CC(c1ccccc1)(c1ccccc1)C2 [Example 2-2, Methyl 6,6-diphenyl-6,7-dihydro-2H-indazole-3-carboxylate] | 1.25
O=C(c1n[nH]c2c1C=CC(c1ccccc1)(c1ccc(F)cc1)C2)C1CC1 (single isomer, unassigned) [Example 10-4B, cyclopropyl[6-(4-fluorophenyl)-6-phenyl-6,7-dihydro-1H-indazol-3-yl]methanone] | 0.8
CN(C)CCO/N=C(\c1n[nH]c2c1C=CC(c1ccccc1)(c1ccccc1)C2)C1CC1 [Example 6-10A, cyclopropyl(6,6-diphenyl-6,7-dihydro-1H-indazol-3-yl)methanone O-(2-dimethylaminoethyl)oxime] | 4.5
C=CCO/N=C(/c1n[nH]c2c1C=CC(c1ccccc1)(c1ccccc1)C2)C1CC1 [Example 6-6B, cyclopropyl(6,6-diphenyl-6,7-dihydro-1H-indazol-3-yl)methanone O-allyloxime] | 1.2
O=C(c1n[nH]c2c1C=CC(c1ccccc1)(c1ccccc1)C2)N1CC1 [Example 3-4, Aziridin-1-yl(6,6-diphenyl-6,7-dihydro-1H-indazol-3-yl)methanone] | 4.5
CCOC(=O)c1[nH]cc2c1C=CC(c1ccccc1)(c1ccccc1)C2 [Example 11, Ethyl 5,5-diphenyl-4,5-dihydro-2H-isoindole-1-carboxylate] | 6.5
COCCO/N=C(\c1n[nH]c2c1C=CC(c1ccccc1)(c1ccccc1)C2)C1CC1 [Example 6-7A, cyclopropyl(6,6-diphenyl-6,7-dihydro-1H-indazol-3-yl)methanone O-(2-methoxyethyl)oxime] | 1.8
CCOC(=O)c1n[nH]c2c1C=CC(C)(c1ccccc1)C2 (single isomer, unassigned) [Example 9-2, ethyl 6-methyl-6-phenyl-6,7-dihydro-1H-indazole-3-carboxylate] | 15
COCCO/N=C(/c1n[nH]c2c1C=CC(c1ccccc1)(c1ccccc1)C2)C1CC1 [Example 6-7B, cyclopropyl(6,6-diphenyl-6,7-dihydro-1H-indazol-3-yl)methanone O-(2-methoxyethyl)oxime] | 6
N#Cc1n[nH]c2c1C=CC(c1ccccc1)(c1ccccc1)C2 [Example 4, 6,6-Diphenyl-6,7-dihydro-1H-indazole-3-carbonitrile] | 23
FCCO/N=C(\c1n[nH]c2c1C=CC(c1ccccc1)(c1ccccc1)C2)C1CC1 [Example 6-11A, cyclopropyl(6,6-diphenyl-6,7-dihydro-1H-indazol-3-yl)methanone O-(2-fluoroethyl)oxime] | 1

Further lines, results first:

IC50 [µM] | Compound
6 | C1=CC(c2ccccc2)(c2ccccc2)Cc2[nH]nc(-c3cccnc3)c21 [Example 8-3, 6,6-Diphenyl-3-pyrid-3-yl-6,7-dihydro-1H-indazole]
1 | CCOC(=O)c1n[nH]c2c1C=CC(c1ccc(F)cc1)(c1ccc(F)cc1)C2 [Example 10-6, Ethyl 6,6-bis(4-fluorophenyl)-6,7-dihydro-1H-indazole-3-carboxylate]
6 | Cc1ccc(S(=O)(=O)n2nc(N)c3c2CC(c2ccccc2)(c2ccccc2)C=C3)cc1 [Example 7-1, 6,6-Diphenyl-1-(4-toluenesulphonyl)-6,7-dihydro-1H-indazol-3-ylamine]
3 | C=CCON=C(c1n[nH]c2c1C=CC(c1ccccc1)(c1ccccc1)C2)C1CCC1 (single isomer, unassigned) [Example 6-5, Cyclobutyl(6,6-diphenyl-6,7-dihydro-1H-indazol-3-yl)methanone O-allyloxime]
1.2 | C1=CC(c2ccccc2)(c2ccccc2)Cc2[nH]nc(-c3ccsc3)c21 [Example 8-4, 6,6-Diphenyl-3-thiophen-3-yl-6,7-dihydro-1H-indazole]
15 to 20 | CCOC(=O)c1n[nH]c2c1C=CC(c1ccc(OC)cc1)(c1ccc(OC)cc1)C2 [Example 10-1, Ethyl 6,6-bis(4-methoxyphenyl)-6,7-dihydro-1H-indazole-3-carboxylate]
1 | C1=CC(c2ccccc2)(c2ccccc2)Cc2[nH]nc(-c3ccccc3)c21 [Example 8-2, 3,6,6-Triphenyl-6,7-dihydro-1H-indazole]
